Tests used:
recombinant human FAK1 = target: T1, recombinant human FAK1 (Homo sapiens, UniProt Q05397); test: FAK1 HTRF assay; assay type: biochemical
T1 construct: fused on or other part: N-terminal 6xHis tag
Method in brief: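 His-tagged human FAK1 (residues 692–end, Sf9-expressed), 10 nM final, with 0.5 μM biotinylated gastrin-precursor Tyr87 peptide and a 10 μM final reagent in pH 7.4 buffer, 45 min at rt. Detection used Eu anti-pTyr antibody plus SA-APC (665/620 nm). Compounds top concentration 10 μM; IC50 from % inhibition.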

Recombinant Src enzyme = target: T2, Recombinant Src enzyme (Homo sapiens, UniProt P12931); test: Src HTRF assay; assay type: biochemical
T2 construct: purchased Millipore 14-326; host or cells: Sf21 insect cells
Procedure: Enzyme assay buffer, supplements, and compounds were prepared as described in the FAK HTRF assay.
Recombinant Src enzyme expressed in Sf21 insect cells was obtained (Millipore, Cat No. 14-326, Lot # D8CN006U-K). A 35 μM stock was used at a final concentration of 5 nM in the assay.
Tyk2 synthetic peptide-Biotinylated-N-terminal tag-[…]
A custom made substrate, a Tyk2 synthetic peptide, biotinylated with an N-terminal tag was obtained (Biopeptide and Sigma, Cat. No. 14918001 VC80021). A 100 μM stock was used at a final concentration of 0.5 μM in the assay.
A 10 mM stock in 100 μL enzyme assay buffer pH7.4 was prepared freshly and used at a final concentration of 10 μM in the assay.
Dasatinib (Bristol-Myers Squibb)
The assay procedure was the same as discussed above.

T1 sequence (Q05397 422-680 limits assumed): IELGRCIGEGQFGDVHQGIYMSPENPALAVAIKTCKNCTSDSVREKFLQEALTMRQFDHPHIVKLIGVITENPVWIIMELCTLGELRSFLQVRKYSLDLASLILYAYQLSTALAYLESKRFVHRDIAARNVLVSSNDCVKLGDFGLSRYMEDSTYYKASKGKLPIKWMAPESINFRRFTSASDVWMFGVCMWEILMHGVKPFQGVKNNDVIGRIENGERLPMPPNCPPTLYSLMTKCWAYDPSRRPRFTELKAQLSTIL
T2 sequence (P12931 whole entry): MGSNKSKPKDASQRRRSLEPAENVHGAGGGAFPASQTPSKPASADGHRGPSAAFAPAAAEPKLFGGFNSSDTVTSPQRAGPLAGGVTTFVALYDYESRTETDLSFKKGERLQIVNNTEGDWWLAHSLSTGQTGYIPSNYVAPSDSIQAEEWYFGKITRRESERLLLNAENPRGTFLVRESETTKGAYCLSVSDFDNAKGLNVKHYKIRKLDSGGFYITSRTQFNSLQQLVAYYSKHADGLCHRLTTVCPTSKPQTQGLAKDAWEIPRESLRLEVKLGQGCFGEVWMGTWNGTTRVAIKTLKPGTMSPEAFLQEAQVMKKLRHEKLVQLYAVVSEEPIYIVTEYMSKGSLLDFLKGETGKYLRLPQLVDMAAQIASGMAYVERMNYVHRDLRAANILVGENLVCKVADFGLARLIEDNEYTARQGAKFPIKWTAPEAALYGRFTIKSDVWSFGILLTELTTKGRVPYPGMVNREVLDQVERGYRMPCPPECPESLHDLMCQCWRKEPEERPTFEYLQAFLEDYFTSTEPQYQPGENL

IC50 (recombinant human FAK1) [µM] | IC50 (Recombinant Src enzyme) [µM] | Compound
> 1 | > 1 | O=C1CCc2cc(Nc3ncc4ccn(S(=O)(=O)c5cccc(OC(F)(F)F)c5)c4n3)ccc2N1 [Example 45]
> 1 | > 1 | COc1ccccc1S(=O)(=O)n1ccc2cnc(Nc3cncnc3)nc21 [Example 146]
> 1 | > 1 | O=S(=O)(c1cccc2cccnc12)n1ccc2cnc(Nc3ccc(N4CCNCC4)cc3OC3CCC3)cc21 [Example 362]
< 0.02 | > 1 | CN(c1ccccc1Cn1ccc2cnc(Nc3ccc(N4CCOCC4)cc3)cc21)S(C)(=O)=O [Example 385]
< 0.02 | < 0.02 | CN(c1ncccc1Cn1ccc2cnc(Nc3ccc4c(c3)NC(=O)CC4)nc21)S(C)(=O)=O [Example 209]
> 1 | > 1 | C[C@H]1CN(c2ccc(Nc3ncc4ccn(Cc5ccccc5NS(=O)(=O)CCCF)c4n3)c(F)c2)CCN1 [Example 729]
< 0.02 | > 1 | COc1cc(N2CCC(N(C)C)CC2)ccc1Nc1ncc2c(n1)N(S(=O)(=O)c1cccc3cccnc13)CC2(C)C [Example 650]
< 0.02 | > 1 | O=S(=O)(c1cccc2cccnc12)n1ccc2cnc(Nc3ccc(N4CCNCC4)cc3Cl)nc21 [Example 418]
< 0.02 | < 0.02 | CN(c1ccccc1Cn1ccc2cnc(Nc3ccc(N4CCN5CCCC5C4)cc3)nc21)S(C)(=O)=O (stereo not drawn) [Example 496]
< 0.02 | < 0.02 | C[C@H]1CN(c2ccc(Nc3ncc4ccn(Cc5ccccc5N(C)S(C)(=O)=O)c4n3)cc2)CCN1C [Example 491]
> 1 | > 1 | CN(c1ncccc1Cn1ccc2cnc(Nc3ncccn3)nc21)S(C)(=O)=O [Example 227]
> 1 | > 1 | CN(C)C1CCN(c2ccc(Nc3nc4c(ccn4Cc4cccnc4N(C)S(C)(=O)=O)cc3C#N)cc2)CC1 [Example 785]
< 0.02 | < 0.02 | Cc1cc(Nc2ncc3ccn(Cc4ccccc4N(C)S(C)(=O)=O)c3n2)ccc1N1CCNCC1 [Example 447]
> 1 | > 1 | CN(c1ncccc1Cn1cc(C(N)=O)c2cnc(Nc3ccc(N4CCNCC4)cc3)nc21)S(C)(=O)=O [Example 734]
< 0.02 | < 0.02 | O=C1CCc2cc(Nc3ncc4ccn(S(=O)(=O)c5cccc6ccccc56)c4n3)ccc2N1 [Example 223]
< 0.02 | > 1 | Cc1cc(Nc2cc3c(cn2)cnn3S(=O)(=O)c2cccc3cccnc23)ccc1N1CCOCC1 [Example 374]
– | > 1 | CC1(C)CN(S(=O)(=O)c2cccc3cccnc23)c2nc(Nc3ccc(N4CCN(C5CC5)CC4)cc3)ncc21 [Example 771]
– | > 1 | C[C@H]1CN(c2ccc(Nc3cc4c(cn3)cnn4Cc3cccnc3N(C)S(C)(=O)=O)cc2)CCN1 [Example 781]
– | > 1 | COc1ccccc1S(=O)(=O)n1ncc2cnc(Nc3ccc4ncsc4c3)cc21 [Example 132]
– | > 1 | COc1cc(Nc2ncc3c(n2)N(S(=O)(=O)c2cccc4cccnc24)CC3(C)C)ccc1N1CCN[C@@H](C)C1 [Example 627]
< 0.02 | > 1 | N#Cc1ccccc1S(=O)(=O)n1ccc2cnc(Nc3ccc(N4CCC(O)CC4)cc3)cc21 [Example 414]
> 1 | > 1 | CN(c1ncccc1Cn1cc(C#N)c2cnc(Nc3ccc(N4CCNCC4)cc3)nc21)S(C)(=O)=O [Example 732]
< 0.02 | > 1 | N#Cc1ccccc1Nc1ncc2ccn(S(=O)(=O)c3cccc4cccnc34)c2n1 [Example 359]
– | > 1 | COc1ccc(Cn2ccc3cnc(Nc4ccc(N5CCN[C@@H](C)C5)cc4)nc32)c(N(C)S(C)(=O)=O)c1 [Example 714]
– | > 1 | COc1ccccc1S(=O)(=O)n1ccc2cnc(Nc3ccncc3)nc21 [Example 144]

IC50 (recombinant human FAK1) [µM] | IC50 (Recombinant Src enzyme) [µM] | Compound
– | > 1 | C[C@H]1CN(c2ccc(Nc3ncc4ccn(Cc5cccc6c5N(C)S(=O)(=O)C6)c4n3)cc2)CCN1 [Example 764]
– | > 1 | COc1c(Nc2ncc3ccn(S(=O)(=O)c4cccc5cccnc45)c3n2)ccc(N2CCNCC2)c1F [Example 370]
– | > 1 | CN1c2c(Cn3ccc4cnc(Nc5ccc(N6CCNCC6)cc5)nc43)cccc2CS1(=O)=O [Example 756]
– | > 1 | O=C1Cc2cc(Nc3cc4c(cn3)cnn4S(=O)(=O)c3cccc4cccnc34)ccc2N1 [Example 354]
– | > 1 | C[C@H]1CN(c2ccc(Nc3ncc4nnn(Cc5cccnc5N(C)S(C)(=O)=O)c4n3)cc2)CCN1 [Example 790]
– | > 1 | CN(c1ncccc1Cn1cc(F)c2cnc(Nc3ccc(N4CCNCC4)cc3)nc21)S(C)(=O)=O [Example 722]
– | > 1 | O=C(Nc1ccc(Nc2cc3c(cn2)cnn3S(=O)(=O)c2cccc3cccnc23)cc1)C1CC1 [Example 375]
– | > 1 | CN(C)C1CCN(c2ccc(Nc3ncc4c(C#N)cn(Cc5cccnc5N(C)S(C)(=O)=O)c4n3)cc2)CC1 [Example 728]
– | > 1 | COc1ccccc1S(=O)(=O)n1ccc2cnc(Nc3cccc(NC(C)=O)c3)nc21 [Example 104]
– | > 1 | CC(c1ccccc1Cn1ccc2cnc(Nc3ccc(N4CCC(N(C)C)CC4)cc3)nc21)S(C)(=O)=O (stereo not drawn) [Example 791]
– | > 1 | COc1ccccc1S(=O)(=O)n1ncc2cnc(Nc3ccc4c(c3)CCC(=O)N4)cc21 [Example 130]
– | > 1 | CN(C)C1CN(c2ccc(Nc3ncc4c(n3)N(S(=O)(=O)c3cccc5cccnc35)CC4(C)C)cc2)C1 [Example 603]
– | > 1 | COc1ccc(Cn2ccc3cnc(Nc4ccc(N5CCN[C@H](C)C5)cc4)nc32)c(N(C)S(C)(=O)=O)c1 [Example 671]
– | > 1 | CN(c1ncccc1CN1CCc2cnc(Nc3ccc(N4CCNCC4)cc3)nc21)S(C)(=O)=O [Example 433]
– | > 1 | COc1cc(C(=O)N2CCOCC2)ccc1Nc1ncc2ccn(Cc3ccccc3N(C)S(C)(=O)=O)c2n1 [Example 503]
– | > 1 | CN(c1ncccc1Cn1ccc2cnc(Nc3ccccc3F)nc21)S(C)(=O)=O [Example 155]
– | > 1 | CN(c1ncccc1Cn1ccc2cnc(Nc3ccncc3)nc21)S(C)(=O)=O [Example 138]
– | > 1 | O=C1CCc2cc(Nc3cc4c(ccn4S(=O)(=O)c4cccc(OC(F)(F)F)c4)cn3)ccc2N1 [Example 56]
– | > 1 | CC1(C)CN(S(=O)(=O)c2cccc3cccnc23)c2nc(Nc3ccc(N4CCC(CO)CC4)cc3)ncc21 [Example 625]
– | > 1 | CC(C)(O)C(=O)Nc1cccc(Nc2ncc3ccn(S(=O)(=O)c4ccccc4OC(F)(F)F)c3n2)c1 [Example 110]
– | < 0.02 | CN(c1ncccc1Cn1ncc2cnc(Nc3ccc(N4CCNCC4)cc3)nc21)S(C)(=O)=O [Example 241]
– | > 1 | CN(c1ncccc1Cn1ccc2cnc(Nc3ccc(N4CCN(CCO)CC4)cc3)cc21)S(C)(=O)=O [Example 393]
– | > 1 | O=S(=O)(c1cccc2cccnc12)n1ccc2cnc(Nc3ccc(N4CCNCC4)cc3CO)nc21 [Example 363]
– | > 1 | COc1ccc(Cn2ccc3cnc(Nc4ccc(N5CCNCC5)cc4)nc32)c(N(C)S(C)(=O)=O)c1 [Example 772]
– | > 1 | CC1(C)CN(S(=O)(=O)c2cccc3cccnc23)c2nc(Nc3ccc4c(c3)CC(=O)N4)ncc21 [Example 511]
